Test results from patent US12258327B2, “5-membered heteroaryl-containing aminopyridine compounds as EGFR inhibitors” (YUHAN CORPORATION, priority 2021, dated 2025).
Read-outs that look alike come from different tables or passages of the source.

How the values were obtained:
EGFR L858R/C797S = EGFR L858R/C797S (Homo sapiens, UniProt P00533, C797S/L858R); assay: Biochemical EGFR kinase assay (Lance Ultra TR-FRET), double mutant L858R/C797S
Method in brief: (§1)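 Enzyme reactions lasted 1 hour at room temperature with test compounds between 0.003 and 10 μM, followed by 10 mM EDTA quench.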

EGFR del19/C797S = EGFR del19/C797S (Homo sapiens, UniProt P00533, C797S/DEL746-750); assay: Biochemical EGFR kinase assay (Lance Ultra TR-FRET), double mutant del19/C797S
Method in brief: as §1

EGFR del19/T790M/C797S = EGFR del19/T790M/C797S (Homo sapiens, UniProt P00533, C797S/DEL746-750/T790M); assay: Biochemical EGFR kinase assay (Lance Ultra TR-FRET), triple mutant del19/T790M/C797S
EGFR del19/T790M/C797S, sequence (P00533 with tags, fused parts or gaps DEL746-750/T790M/C797S): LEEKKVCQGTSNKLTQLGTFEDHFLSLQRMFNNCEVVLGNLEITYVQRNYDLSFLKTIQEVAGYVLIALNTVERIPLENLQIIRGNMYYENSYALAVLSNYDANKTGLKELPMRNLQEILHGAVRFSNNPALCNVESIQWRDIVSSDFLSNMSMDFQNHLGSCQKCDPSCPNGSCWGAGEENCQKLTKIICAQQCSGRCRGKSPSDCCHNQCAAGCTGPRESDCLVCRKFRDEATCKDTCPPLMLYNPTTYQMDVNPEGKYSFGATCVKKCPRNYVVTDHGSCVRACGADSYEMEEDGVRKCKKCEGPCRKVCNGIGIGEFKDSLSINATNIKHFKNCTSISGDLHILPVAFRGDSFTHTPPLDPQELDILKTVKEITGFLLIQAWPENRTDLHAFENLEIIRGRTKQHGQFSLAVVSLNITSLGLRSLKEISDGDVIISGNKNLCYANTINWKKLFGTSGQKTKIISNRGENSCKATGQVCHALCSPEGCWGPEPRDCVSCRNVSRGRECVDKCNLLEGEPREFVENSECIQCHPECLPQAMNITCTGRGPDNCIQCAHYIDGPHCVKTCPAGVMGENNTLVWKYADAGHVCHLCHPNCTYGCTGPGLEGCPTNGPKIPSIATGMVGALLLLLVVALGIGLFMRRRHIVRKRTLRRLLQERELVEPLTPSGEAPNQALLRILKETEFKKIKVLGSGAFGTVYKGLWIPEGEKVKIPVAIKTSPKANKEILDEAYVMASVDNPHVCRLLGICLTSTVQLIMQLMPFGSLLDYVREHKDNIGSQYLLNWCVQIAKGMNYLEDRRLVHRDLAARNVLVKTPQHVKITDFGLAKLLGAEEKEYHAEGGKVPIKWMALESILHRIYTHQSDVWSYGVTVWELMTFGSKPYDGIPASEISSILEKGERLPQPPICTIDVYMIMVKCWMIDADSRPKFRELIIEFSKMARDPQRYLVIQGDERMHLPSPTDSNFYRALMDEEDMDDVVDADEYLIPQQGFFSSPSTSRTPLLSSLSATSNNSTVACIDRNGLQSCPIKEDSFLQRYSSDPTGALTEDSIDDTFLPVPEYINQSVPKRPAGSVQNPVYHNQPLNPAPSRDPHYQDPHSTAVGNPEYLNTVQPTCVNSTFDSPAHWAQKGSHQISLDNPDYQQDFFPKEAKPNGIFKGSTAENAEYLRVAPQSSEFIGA
Method in brief: as §1

EGFR wildtype (WT) = EGFR wildtype (WT) (Homo sapiens, UniProt P00533); assay: Biochemical EGFR kinase assay (Lance Ultra TR-FRET), wildtype
EGFR wildtype (WT), sequence (P00533 25-1210): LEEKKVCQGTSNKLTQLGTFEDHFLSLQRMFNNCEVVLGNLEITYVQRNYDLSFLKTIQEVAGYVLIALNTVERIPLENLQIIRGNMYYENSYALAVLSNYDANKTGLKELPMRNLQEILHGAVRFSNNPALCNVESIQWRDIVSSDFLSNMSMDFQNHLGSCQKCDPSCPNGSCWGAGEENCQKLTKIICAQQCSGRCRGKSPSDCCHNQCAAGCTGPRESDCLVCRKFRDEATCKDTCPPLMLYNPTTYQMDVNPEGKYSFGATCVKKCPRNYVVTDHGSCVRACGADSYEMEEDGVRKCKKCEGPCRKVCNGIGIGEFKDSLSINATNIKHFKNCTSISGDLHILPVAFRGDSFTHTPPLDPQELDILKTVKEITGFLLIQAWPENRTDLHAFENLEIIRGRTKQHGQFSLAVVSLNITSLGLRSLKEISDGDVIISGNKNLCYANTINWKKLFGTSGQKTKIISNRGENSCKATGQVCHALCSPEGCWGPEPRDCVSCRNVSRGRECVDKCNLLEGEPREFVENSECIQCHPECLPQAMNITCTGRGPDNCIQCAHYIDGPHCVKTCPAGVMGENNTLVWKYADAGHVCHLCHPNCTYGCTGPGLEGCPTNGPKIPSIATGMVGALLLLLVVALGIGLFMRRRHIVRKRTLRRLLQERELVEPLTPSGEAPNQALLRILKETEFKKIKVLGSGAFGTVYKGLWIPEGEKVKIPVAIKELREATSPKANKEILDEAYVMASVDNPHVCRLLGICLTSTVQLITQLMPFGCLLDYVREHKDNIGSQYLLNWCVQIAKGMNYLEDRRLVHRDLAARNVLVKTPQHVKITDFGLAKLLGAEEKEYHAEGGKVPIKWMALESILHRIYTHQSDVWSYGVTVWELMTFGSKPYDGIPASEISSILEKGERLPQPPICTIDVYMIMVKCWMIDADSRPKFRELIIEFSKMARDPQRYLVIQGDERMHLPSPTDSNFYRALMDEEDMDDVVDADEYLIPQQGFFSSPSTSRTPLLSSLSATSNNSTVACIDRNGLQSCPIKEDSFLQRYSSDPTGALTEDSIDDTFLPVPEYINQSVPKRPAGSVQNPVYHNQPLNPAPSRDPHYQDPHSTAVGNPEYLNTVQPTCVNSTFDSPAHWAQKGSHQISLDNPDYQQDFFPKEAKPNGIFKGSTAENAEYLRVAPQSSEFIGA
Method in brief: as §1

EGFR L858R/T790M/C797S = EGFR L858R/T790M/C797S (Homo sapiens, UniProt P00533, C797S/L858R/T790M); assay: Biochemical EGFR kinase assay (Lance Ultra TR-FRET), triple mutant L858R/T790M/C797S
EGFR L858R/T790M/C797S, sequence (P00533 25-1210 T790M/C797S/L858R): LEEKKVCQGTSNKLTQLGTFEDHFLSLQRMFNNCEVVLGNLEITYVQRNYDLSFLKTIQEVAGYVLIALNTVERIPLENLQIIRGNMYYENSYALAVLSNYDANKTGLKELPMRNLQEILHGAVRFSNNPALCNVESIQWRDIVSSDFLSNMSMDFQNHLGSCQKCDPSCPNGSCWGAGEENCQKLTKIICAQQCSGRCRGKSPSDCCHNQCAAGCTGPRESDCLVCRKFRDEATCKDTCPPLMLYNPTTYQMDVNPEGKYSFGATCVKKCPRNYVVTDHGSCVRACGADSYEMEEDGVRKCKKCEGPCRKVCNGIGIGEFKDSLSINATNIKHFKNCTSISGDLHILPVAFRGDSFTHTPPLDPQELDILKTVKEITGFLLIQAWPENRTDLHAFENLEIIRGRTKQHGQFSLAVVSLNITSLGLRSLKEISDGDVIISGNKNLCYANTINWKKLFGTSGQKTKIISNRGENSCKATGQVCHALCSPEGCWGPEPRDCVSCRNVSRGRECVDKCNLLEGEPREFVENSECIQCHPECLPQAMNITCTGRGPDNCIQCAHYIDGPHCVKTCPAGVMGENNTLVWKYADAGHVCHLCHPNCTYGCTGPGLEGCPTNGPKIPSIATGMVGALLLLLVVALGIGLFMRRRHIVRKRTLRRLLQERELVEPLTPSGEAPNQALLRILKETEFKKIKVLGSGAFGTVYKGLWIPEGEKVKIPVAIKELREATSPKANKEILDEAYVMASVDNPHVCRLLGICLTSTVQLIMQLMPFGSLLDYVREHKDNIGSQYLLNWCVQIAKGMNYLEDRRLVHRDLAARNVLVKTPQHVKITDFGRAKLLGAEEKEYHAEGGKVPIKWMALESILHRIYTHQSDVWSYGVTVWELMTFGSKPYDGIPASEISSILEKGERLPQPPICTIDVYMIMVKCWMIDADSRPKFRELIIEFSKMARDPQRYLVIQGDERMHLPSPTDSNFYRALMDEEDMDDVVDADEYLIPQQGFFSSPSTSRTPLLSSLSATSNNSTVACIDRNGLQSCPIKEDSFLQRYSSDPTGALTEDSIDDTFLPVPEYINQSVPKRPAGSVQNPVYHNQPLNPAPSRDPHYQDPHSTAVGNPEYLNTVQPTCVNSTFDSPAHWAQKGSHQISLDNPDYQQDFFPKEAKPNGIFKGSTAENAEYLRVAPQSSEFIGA
Method in brief: as §1

[1] = Km ATP, read-out: IC50 L858R/C797S, Km ATP
[2] = Km ATP, read-out: IC50 del19/C797S, Km ATP
[3] = Km ATP, read-out: IC50 del19/T790M/C797S, Km ATP
[4] = Km ATP, read-out: IC50 WT, Km ATP
[5] = Km ATP, read-out: IC50 L858R/T790M/C797S, Km ATP
[6] = Km ATP, read-out: IC50 L858R/C797S (nM) Km ATP
[7] = Km ATP, read-out: IC50 del19/C797S (nM) Km ATP
[8] = Km ATP, read-out: IC50 del19/T790M/C797S (nM) Km ATP
[9] = Km ATP, read-out: IC50 WT (nM) Km ATP
[10] = Km ATP, read-out: IC50 L858R/T790M/C797S (nM) Km ATP
[11] = IC50 L858R/C797S (nM) 100 μM ATP, 100 μM ATP
[12] = IC50 del19/C797S (nM) 100 μM ATP, 100 μM ATP
[13] = IC50 del19/T790M/C797S (nM) 100 μM ATP, 100 μM ATP
[14] = IC50 WT (nM) 100 μM ATP, 100 μM ATP
[15] = IC50 L858R/T790M/C797S (nM) 100 μM ATP, 100 μM ATP

EGFR L858R/C797S, sequence (P00533 25-1210 C797S/L858R): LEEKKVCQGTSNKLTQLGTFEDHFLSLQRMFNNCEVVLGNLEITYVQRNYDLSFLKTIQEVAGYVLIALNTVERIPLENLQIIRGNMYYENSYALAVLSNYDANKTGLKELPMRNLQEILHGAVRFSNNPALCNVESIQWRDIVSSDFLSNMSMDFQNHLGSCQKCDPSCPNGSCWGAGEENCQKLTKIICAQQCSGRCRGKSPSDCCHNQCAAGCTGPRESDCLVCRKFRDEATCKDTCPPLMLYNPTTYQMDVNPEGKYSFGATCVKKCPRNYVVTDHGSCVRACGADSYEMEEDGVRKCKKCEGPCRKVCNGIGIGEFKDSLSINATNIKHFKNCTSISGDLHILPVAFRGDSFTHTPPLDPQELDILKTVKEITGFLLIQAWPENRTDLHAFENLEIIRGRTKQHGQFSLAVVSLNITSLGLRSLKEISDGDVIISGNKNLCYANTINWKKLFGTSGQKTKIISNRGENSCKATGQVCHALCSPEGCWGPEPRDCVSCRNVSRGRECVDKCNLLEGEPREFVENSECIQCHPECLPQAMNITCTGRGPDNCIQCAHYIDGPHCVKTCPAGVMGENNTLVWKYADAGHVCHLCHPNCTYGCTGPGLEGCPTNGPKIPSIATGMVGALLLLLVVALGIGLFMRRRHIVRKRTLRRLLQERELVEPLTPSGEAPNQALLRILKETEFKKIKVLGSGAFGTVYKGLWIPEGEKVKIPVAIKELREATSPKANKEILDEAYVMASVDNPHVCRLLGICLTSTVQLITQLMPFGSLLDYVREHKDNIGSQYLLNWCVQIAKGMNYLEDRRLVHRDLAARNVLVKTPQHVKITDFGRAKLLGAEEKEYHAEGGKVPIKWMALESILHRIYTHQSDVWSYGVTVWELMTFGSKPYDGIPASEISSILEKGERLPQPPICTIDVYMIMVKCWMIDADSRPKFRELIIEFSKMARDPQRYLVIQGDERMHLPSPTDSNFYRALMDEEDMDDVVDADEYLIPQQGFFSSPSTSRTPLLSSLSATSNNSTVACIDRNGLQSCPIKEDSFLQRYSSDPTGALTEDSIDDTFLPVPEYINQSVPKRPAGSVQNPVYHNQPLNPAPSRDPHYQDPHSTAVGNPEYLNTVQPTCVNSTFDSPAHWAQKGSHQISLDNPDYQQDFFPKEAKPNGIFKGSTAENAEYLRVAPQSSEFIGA

IC50 (EGFR L858R/C797S; [1]) [nM] | IC50 (EGFR del19/C797S; [2]) [nM] | IC50 (EGFR del19/T790M/C797S; [3]) [nM] | IC50 (EGFR wildtype (WT); [4]) [nM] | IC50 (EGFR L858R/T790M/C797S; [5]) [nM] | IC50 (EGFR L858R/C797S; [6]) [nM] | IC50 (EGFR del19/C797S; [7]) [nM] | IC50 (EGFR del19/T790M/C797S; [8]) [nM] | IC50 (EGFR wildtype (WT); [9]) [nM] | IC50 (EGFR L858R/T790M/C797S; [10]) [nM] | IC50 (EGFR L858R/C797S; [11]) [nM] | IC50 (EGFR del19/C797S; [12]) [nM] | IC50 (EGFR del19/T790M/C797S; [13]) [nM] | IC50 (EGFR wildtype (WT); [14]) [nM] | IC50 (EGFR L858R/T790M/C797S; [15]) [nM] | SMILES
251 | 391 | 17.1 | 5000 | 7.2 |  |  |  |  |  |  |  |  |  |  | O=S(=O)(C1CC1)n1cc(-c2cc(Nc3ncc(-c4ccn(CCC(F)(F)F)n4)c(N[C@H]4CC[C@@H](F)CC4)n3)ccn2)cn1 [Example 367, N^2-(2-(1-(Cyclopropylsulfonyl)-1H-pyrazol-4-yl)pyridin-4-yl)-N^4-((1s,4s)-4-fluorocyclohexyl)-5-(1-(3,3,3-trifluoropropyl)-1H-pyrazol-3-yl)pyrimidine-2,4-diamine]
 |  |  |  |  | 12 | 67.7 | 8 | 853 | 5.3 |  |  |  |  |  | O=S(=O)(C1CC1)n1cc(-c2nccc(Nc3cc(N[C@H]4CC[C@@H](F)CC4)c(-c4ccn(CC(F)(F)F)n4)cn3)n2)cn1 [Example 305, N^2-(2-(1-(Cyclopropylsulfonyl)-1H-pyrazol-4-yl)pyrimidin-4-yl)-N^4-((1s,4s)-4-fluorocyclohexyl)-5-(1-(2,2,2-trifluoroethyl)-1H-pyrazol-3-yl)pyridine-2,4-diamine]
 |  |  |  |  |  |  |  |  |  | 3 | 0.4 | 0.7 | 1520 | 2.3 | CC(C)(O)c1nc(-c2cnc(Nc3ccnc(-c4cnn(S(=O)(=O)C5CC5)c4)n3)cc2N[C@H]2CC[C@@H](O)CC2)cs1 [Example 76, (1s,4s)-4-((2-((2-(1-(Cyclopropylsulfonyl)-1H-pyrazol-4-yl)pyrimidin-4-yl)amino)-5-(2-(2-hydroxypropan-2-yl)thiazol-4-yl)pyridin-4-yl)amino)cyclohexan-1-ol]
 |  |  |  |  | 37.1 | 42.8 | 0.8 | 624 | 0.6 |  |  |  |  |  | CS(=O)(=O)c1ccn(-c2cnc(Nc3ccnc(-c4cnn(S(=O)(=O)C5CC5)c4)n3)cc2N[C@H]2CC[C@@](C)(O)CC2)n1 [Example 183, (1s,4s)-4-((2-((2-(1-(Cyclopropylsulfonyl)-1H-pyrazol-4-yl)pyrimidin-4-yl)amino)-5-(3-(methylsulfonyl)-1H-pyrazol-1-yl)pyridin-4-yl)amino)-1-methylcyclohexan-1-ol]
127 | 249 | 8.5 | 3320 | 3.1 |  |  |  |  |  |  |  |  |  |  | O=S(=O)(C1CC1)n1cc(-c2cc(Nc3ncc(-c4ccn(CC(F)(F)F)n4)c(N[C@H]4CC[C@@H](F)CC4)n3)ccn2)cn1 [Example 366, N^2-(2-(1-(Cyclopropylsulfonyl)-1H-pyrazol-4-yl)pyridin-4-yl)-N^4-((1s,4s)-4-fluorocyclohexyl)-5-(1-(2,2,2-trifluoroethyl)-1H-pyrazol-3-yl)pyrimidine-2,4-diamine]
 |  |  |  |  | 275 | 33.4 | 0.9 | 271 | 0.2 |  |  |  |  |  | OC1CCN(Nc2cc(Nc3ccnc(-c4cnn(CC(F)F)c4)n3)ncc2-c2ccn(C(F)F)n2)CC1 [Example 162, 1-((2-((2-(1-(2,2-Difluoroethyl)-1H-pyrazol-4-yl)pyrimidin-4-yl)amino)-5-(1-(difluoromethyl)-1H-pyrazol-3-yl)pyridin-4-yl)amino)piperidin-4-ol]
 |  |  |  |  | 59.5 | 51.5 | 11 | 87.1 | 3.8 |  |  |  |  |  | O=S(=O)(C1CC1)n1cc(-c2nccc(Nc3cc(N[C@H]4CC[C@@H](CC(F)F)CC4)c(-c4ccn(C(F)F)n4)cn3)n2)cn1 [Example 185, N^2-(2-(1-(Cyclopropylsulfonyl)-1H-pyrazol-4-yl)pyrimidin-4-yl)-N^4-((1s,4s)-4-(2,2-difluoroethyl)cyclohexyl)-5-(1-(difluoromethyl)-1H-pyrazol-3-yl)pyridine-2,4-diamine]
 |  |  |  |  |  | 0.1 |  |  |  | 237 | 36.8 | 4 | > 10000 | 19 | COCn1cc(-c2nccc(Nc3cc(N[C@H]4CC[C@@](C)(O)CC4)c(-c4ccn(C(F)F)n4)cn3)n2)cn1 [Example 310, (1s,4s)-4-((5-(1-(Difluoromethyl)-1H-pyrazol-3-yl)-2-((2-(1-(methoxymethyl)-1H-pyrazol-4-yl)pyrimidin-4-yl)amino)pyridin-4-yl)amino)-1-methylcyclohexan-1-ol]
 |  |  |  |  | 0.1 | 0.3 | 0.2 | 0.3 | 0.1 |  |  |  |  |  | CN1CCC(n2ccc(-c3cnc(Nc4ccnc(-c5cnn(S(=O)(=O)C6CC6)c5)n4)cc3N[C@H]3CC[C@@](C)(O)CC3)n2)CC1 [Example 287, (1s,4s)-4-((2-((2-(1-(Cyclopropylsulfonyl)-1H-pyrazol-4-yl)pyrimidin-4-yl)amino)-5-(1-(1-methylpiperidin-4-yl)-1H-pyrazol-3-yl)pyridin-4-yl)amino)-1-methylcyclohexan-1-ol]
 |  |  |  |  | 1.9 | 1.2 | 0.8 | 14.9 | 0.4 | 121 | 1.4 | 1.1 | > 10000 | 0.9 | O=S(=O)(C1CC1)n1cc(-c2nccc(Nc3cc(NC4CCC(F)(CO)CC4)c(-c4cc5n(n4)CCCC5)cn3)n2)cn1 (stereo not shown) [Example 276, (4-((2-((2-(1-(Cyclopropylsulfonyl)-1H-pyrazol-4-yl)pyrimidin-4-yl)amino)-5-(4,5,6,7-tetrahydropyrazolo[1,5-a]pyridin-2-yl)pyridin-4-yl)amino)-1-fluorocyclohexyl)methanol]
 |  |  |  |  | 1.9 | 1.4 | 0.3 | 21.6 | 0.1 | 22.5 | 1.3 | 0.2 | > 10000 | 0.2 | O=S(=O)(C1CC1)n1cc(-c2nccc(Nc3cc(N[C@H]4CC[C@@H](NCCF)CC4)c(-c4nc(C(F)F)cs4)cn3)n2)cn1 [Example 123, N^2-(2-(1-(Cyclopropylsulfonyl)-1H-pyrazol-4-yl)pyrimidin-4-yl)-5-(4-(difluoromethyl)thiazol-2-yl)-N^4-((1s,4s)-4-((2-fluoroethyl)amino)cyclohexyl)pyridine-2,4-diamine]
 |  |  |  |  | 0.1 | 0.4 | 0.6 | 0.3 | 0.3 |  |  |  |  |  | CN(C)CC[C@H]1CC[C@@H](Nc2cc(Nc3ccnc(-c4cnn(S(=O)(=O)C5CC5)c4)n3)ncc2-c2ccn(C(F)F)n2)CC1 [Example 211, N^2-(2-(1-(Cyclopropylsulfonyl)-1H-pyrazol-4-yl)pyrimidin-4-yl)-5-(1-(difluoromethyl)-1H-pyrazol-3-yl)-N^4-((1s,4s)-4-(2-(dimethylamino)ethyl)cyclohexyl)pyridine-2,4-diamine]
 |  |  |  |  | 0.4 | 0.5 | 0.6 |  | 0.3 | 1.6 | 1.1 | 0.4 | 247 | 0.4 | CN(C)C(=O)[C@H]1CC[C@@H](Nc2cc(Nc3ccnc(-c4cnn(S(=O)(=O)C5CC5)c4)n3)ncc2-c2ccn(C)n2)CC1 [Example 232, (1s,4s)-4-((2-((2-(1-(Cyclopropylsulfonyl)-1H-pyrazol-4-yl)pyrimidin-4-yl)amino)-5-(1-methyl-1H-pyrazol-3-yl)pyridin-4-yl)amino)-N,N-dimethylcyclohexane-1-carboxamide]
 |  |  |  |  | 16.1 | 118 | 8.5 | 85.1 | 3.5 |  |  |  |  |  | Cn1ccc(-c2cnc(Nc3ccnc(-c4cnn(S(=O)(=O)C5CC5)c4)n3)cc2NCC2CCC(C(F)F)CC2)n1 (stereo not shown) [Example 152, N^2-(2-(1-(Cyclopropylsulfonyl)-1H-pyrazol-4-yl)pyrimidin-4-yl)-N^4-((4-(difluoromethyl)cyclohexyl)methyl)-5-(1-methyl-1H-pyrazol-3-yl)pyridine-2,4-diamine]
 |  |  |  |  | 1 | 0.4 | 0.3 | 4.9 | 0.2 | 4.9 | 0.5 | 0.3 | 1510 | 0.2 | Cn1ccc(-c2cnc(Nc3ccnc(-c4cnn(S(=O)(=O)C5CC5)c4)n3)cc2N[C@H]2CC[C@](O)(CO)CC2)n1 [Example 221, (1s,4s)-4-((2-((2-(1-(Cyclopropylsulfonyl)-1H-pyrazol-4-yl)pyrimidin-4-yl)amino)-5-(1-methyl-1H-pyrazol-3-yl)pyridin-4-yl)amino)-1-(hydroxymethyl)cyclohexan-1-ol]
 |  |  |  |  | 23.7 | 28.7 | 0.2 | 454 | 0.4 |  |  |  |  |  | O=S(=O)(C1CC1)n1cc(-c2nccc(Nc3cc(NC4CCN(CCF)CC4)c(-c4ccn(C(F)F)n4)cn3)n2)cn1 [Example 217, N^2-(2-(1-(Cyclopropylsulfonyl)-1H-pyrazol-4-yl)pyrimidin-4-yl)-5-(1-(difluoromethyl)-1H-pyrazol-3-yl)-N^4-(1-(2-fluoroethyl)piperidin-4-yl)pyridine-2,4-diamine]
